# Source: patent publication US20240148821A1, “PHARMACEUTICAL USE OF CYCLIC PEPTIDE COMPOUND” (CHUGAI SEIYAKU KABUSHIKI KAISHA, priority 2021, published 2024)
# Numbered stars: 1 amine (or outer) side, 2 acyl side, 3 side chain; on linkers, the order of the positions; unused ones are H or OH. Bridge positions count the residues as written; N and C are the ends. Square brackets hold non-standard residues; d marks the D form. Peptide text beside a SMILES is read from it. * marks the point of attachment. hPhe(3,5-F2-4-CF3) = N[C@@H](CCc1cc(F)c(C(F)(F)F)c(F)c1)C(=O)O; hPhe(3-Cl-4-CF3) = N[C@@H](CCc1ccc(C(F)(F)F)c(Cl)c1)C(=O)O; hPhe(3-F,4-CF3) = N[C@@H](CCc1ccc(C(F)(F)F)c(F)c1)C(=O)O; hPhe(4-CF3) = N[C@@H](CCc1ccc(C(F)(F)F)cc1)C(=O)O; NEtPhe(4-Me) = CCN[C@@H](Cc1ccc(C)cc1)C(=O)O; NMePhe(4-Me) = CN[C@@H](Cc1ccc(C)cc1)C(=O)O; NMePhe(2-Me) = CN[C@@H](Cc1ccccc1C)C(=O)O; NMedβ3hAla = C[C@H](CC(=O)[*:2])N(C)[*:1]; NMeGly(cPent) = CN[C@H](C(=O)O)C1CCCC1; Pro(4,4-F2) = O=C(O)[C@@H]1CC(F)(F)CN1; NMeCha = CN[C@@H](CC1CCCCC1)C(=O)O; Hyp = O=C(O)[C@@H]1C[C@@H](O)CN1; NMeChg = CN[C@H](C(=O)O)C1CCCCC1; NMeI = CC[C@H](C)[C@H](NC)C(=O)O; Cha = N[C@@H](CC1CCCCC1)C(=O)O; NMeD = CN[C@@H](CC(=O)O)C(=O)O; NMeL = CN[C@@H](CC(C)C)C(=O)O; NMeNle = CCCC[C@H](NC)C(=O)O; NMeNva = CCC[C@H](NC)C(=O)O; NMeV = CN[C@H](C(=O)O)C(C)C; d(β3hA) = C[C@@H](N)CC(=O)O; NMeS = CN[C@@H](CO)C(=O)O; Pip = O=C(O)[C@@H]1CCCCN1; NMeA = CN[C@@H](C)C(=O)O; Piperidide = C1CCN(*)CC1; Pyrrolidide = C1CCN(*)C1; Ac5c = NC1(C(=O)O)CCCC1; Aze = O=C(O)[C@@H]1CCN1; Ac4c = NC1(C(=O)O)CCC1; CH2CMe2OH = CC(C)(O)C*; Aib = CC(C)(N)C(=O)O; Isopentyl = CC(C)CC*; NEtG = CCNCC(=O)O; Sar = CNCC(=O)O
# Tested on: Human pancreatic cancer cell line AsPC-1 (G12D mutation Kras)
# Test: AsPC-1 cell growth inhibition (AsPC-1 CGI)
# Format: cell-based
# Conditions: read-out: AsPC-1 cell growth inhibition, 50% growth inhibitory concentration (IC50 value); 96 hours, CellTiter-Glo, values classified in ranges
# Method: Test compounds were serially dilated with dimethyl sulfoxide, and 200 nL was then dispensed to a U-bottom 96-well plate using Labcyte Echo. […] The cell suspension was dispensed to a. plate containing a test compound at 100 μL per well and incubated at 37° C. in a 5% carbon dioxide gas incubator. 96 hours later, 80 μL of CellTiter-Glo (Promega) was added to each well and fluorescence was measured.
row,Compound,IC50 [nM]
1,"CCCC[C@H]1C(=O)N[C@H](C)CC(=O)N(C)[C@@H](CC(C)C)C(=O)N[C@@H]([C@@H](C)CC)C(=O)N(C)CC(=O)N(C)CC(=O)N(C)[C@@H](CC2CCCCC2)C(=O)N(C)CC(=O)N[C@@H](CCc2ccc(C(F)(F)F)c(F)c2)C(=O)N2CCC[C@H]2C(=O)NC2(CCCC2)C(=O)N1C [Compound 1518] (cyclo([Ac5c][NMeNle][d(β3hA)][NMeL]I[Sar][Sar][NMeCha][Sar][hPhe(3-F,4-CF3)]P))",> 500
2,"CCC[C@H]1C(=O)N[C@@H]([C@@H](C)CC)C(=O)N(C)CC(=O)N(C)CC(=O)N(C)[C@@H](CC2CCCCC2)C(=O)N(C)CC(=O)N[C@@H](CCc2cc(F)c(C(F)(F)F)c(F)c2)C(=O)N2CC(F)(F)C[C@H]2C(=O)NC2(CCCC2)C(=O)N(C)[C@@H](C2CCCCC2)C(=O)N(C)[C@H](C(=O)N2CCCC2)CC(=O)N1C [Compound 1160] ([NMeNva]I[Sar][Sar][NMeCha][Sar][hPhe(3,5-F2-4-CF3)][Pro(4,4-F2)][Ac5c][NMeChg][NMeD]-Pyrrolidide; lactam N-11)",≤ 20
3,CC[C@H](C)[C@@H]1NC(=O)[C@H](CC(C)C)N(C)C(=O)C[C@@H](C(=O)N2CCCCC2)N(C)C(=O)[C@H](CC(C)C)N(C)C(=O)C(C)(C)NC(=O)[C@H](COCC(C)(C)O)N(C)C(=O)[C@H](CCc2ccc(C(F)(F)F)cc2)NC(=O)CN(C)C(=O)[C@H](COCCC(C)C)N(C)C(=O)CN(C)C(=O)CN(CC)C1=O [Compound 1528] ([NMeL]I[NEtG][Sar][NMeS](Isopentyl)[Sar][hPhe(4-CF3)][NMeS](CH2CMe2OH)[Aib][NMeL][NMeD]-Piperidide; lactam N-11),> 500
4,CC(C)C[C@H]1C(=O)N[C@@H](CC2CCCCC2)C(=O)N(C)CC(=O)N(C)CC(=O)N(C)[C@@H](CC2CCCCC2)C(=O)N(C)CC(=O)N[C@@H](CCc2ccc(C(F)(F)F)c(Cl)c2)C(=O)N2CCC[C@H]2C(=O)NC2(CCCC2)C(=O)N(C)[C@@H](C(C)C)C(=O)N(C)[C@H](C(=O)N2CCCCC2)CC(=O)N1C [Compound 986] ([NMeL][Cha][Sar][Sar][NMeCha][Sar][hPhe(3-Cl-4-CF3)]P[Ac5c][NMeV][NMeD]-Piperidide; lactam N-11),> 500
5,CC[C@H](C)[C@@H]1NC(=O)[C@H](CC(C)C)N(C)C(=O)C[C@@H](C(=O)N(C)C)N(C)C(=O)[C@H]([C@@H](C)CC)N(C)C(=O)[C@H](C)NC(=O)[C@@H](C)NC(=O)[C@H](CCc2ccc(C(F)(F)F)c(Cl)c2)NC(=O)CN(C)C(=O)[C@H](Cc2ccc(C)cc2)N(C)C(=O)[C@@H]2CCN2C(=O)[C@H](C)N(C)C1=O [Compound 382] ([NMeL]I[NMeA][Aze][NMePhe(4-Me)][Sar][hPhe(3-Cl-4-CF3)][dA]A[NMeI][NMeD]-NMe2; lactam N-11),> 500
6,CC[C@H](C)[C@@H]1NC(=O)[C@@H]2CCCCN2C(=O)C[C@@H](C)NC(=O)[C@H](CC(C)C)N(C)C(=O)C2(CCCC2)NC(=O)[C@H](CC(C)C)N(C)C(=O)[C@H](CCc2ccc(C(F)(F)F)c(Cl)c2)NC(=O)CN(C)C(=O)[C@H](CC2CCCCC2)N(C)C(=O)CN(C)C(=O)CN(C)C1=O [Compound 213] (cyclo([Ac5c][NMeL][d(β3hA)][Pip]I[Sar][Sar][NMeCha][Sar][hPhe(3-Cl-4-CF3)][NMeL])),> 500
7,CC[C@H](C)[C@@H]1NC(=O)[C@H](C)N(C)C(=O)C[C@@H](C(=O)N2CCCCC2)N(C)C(=O)[C@H](C(C)C)N(C)C(=O)C2(CCCC2)NC(=O)[C@@H]2CCCN2C(=O)[C@H](CCc2ccc(C(F)(F)F)c(Cl)c2)NC(=O)[C@H]2CCCN2C(=O)[C@H](CC2CCCCC2)N(C)C(=O)[C@@H]2CCN2C(=O)CN(C)C1=O [Compound 447] ([NMeA]I[Sar][Aze][NMeCha][dP][hPhe(3-Cl-4-CF3)]P[Ac5c][NMeV][NMeD]-Piperidide; lactam N-11),> 500
8,CC[C@H](C)[C@@H]1NC(=O)[C@H](CC(C)C)N(C)C(=O)C[C@@H](C(=O)N(C)C)N(C)C(=O)[C@H](C2CCCC2)N(C)C(=O)C2(CCCC2)NC(=O)[C@H](Cc2ccccc2C)N(C)C(=O)[C@H](CCc2ccc(C(F)(F)F)c(Cl)c2)NC(=O)CN(C)C(=O)[C@H](CC2CCCCC2)N(C)C(=O)[C@@H]2CCN2C(=O)[C@H](C)N(C)C1=O [Compound 1880] ([NMeL]I[NMeA][Aze][NMeCha][Sar][hPhe(3-Cl-4-CF3)][NMePhe(2-Me)][Ac5c][NMeGly(cPent)][NMeD]-NMe2; lactam N-11),> 500
9,CCO[C@@H]1C[C@H]2C(=O)NC3(CCC3)C(=O)N(C)[C@@H]([C@@H](C)CC)C(=O)N(C)[C@H](C)CC(=O)N(C)[C@@H](CC(C)C)C(=O)N[C@@H]([C@@H](C)CC)C(=O)N(C)[C@@H](C)C(=O)N3CC[C@H]3C(=O)N(CC)[C@@H](Cc3ccc(C)cc3)C(=O)N(C)CC(=O)N[C@@H](CCc3ccc(C(F)(F)F)c(Cl)c3)C(=O)N2C1 [Compound 626] (cyclo([Ac4c][NMeI][NMedβ3hAla][NMeL]I[NMeA][Aze][NEtPhe(4-Me)][Sar][hPhe(3-Cl-4-CF3)][Hyp](Et))),≤ 20
